Calls of active or inactive are those of the source. The calls are words filed in the database; no cut-off is given here. *1 amine or outer side, *2 acyl side, *3 side chain or, on linkers, in order; H or OH if unused. Where a SMILES comes first, the peptide text is derived from it. Bridges are numbered along the chain shown (N, C = ends). [ ]: non-standard residue; d: D form. Phe(3R-OH) = O=C([C@@H](N[*:1])[C@H](O[*:3])c1ccccc1)[*:2]; NMeTrp(4-OMe) = CN[C@@H](Cc1c[nH]c2cccc(OC)c12)C(=O)O; NMeT = CN[C@H](C(=O)O)[C@@H](C)O; NMeL = CN[C@@H](CC(C)C)C(=O)O; NMeV = CN[C@H](C(=O)O)C(C)C
Experiments:
Mus musculus [1] = assay: In vivo modulation of Skp2-p27 axis in tumor of BALB/c nude mouse xenografted with human HCT116 cells assessed as downregulation of Skp2 level at 5 to 10 m/kg, ip administered thrice a week for 3.5 weeks by Western blot analysis; assay type: functional, organism-based
HCT-116 [2] = assay: Effect on Skp1 expression in human HCT116 cells at 5 to 20 uM after 24 hrs by Western blot analysis; assay type: functional, cell-based
HCT-116 [3] = assay: Antitumor activity against human HCT116 cells xenografted in BALB/c nude mouse assessed as tumor weight at 5 mg/kg, ip administered thrice a week for 3.5 weeks measured on last day (reference value: 100%); assay type: functional
HCT-116 [4] = assay: Induction of cell cycle arrest in human HCT116 cells assessed as accumulation at G0/G1 phase incubated for 18 hrs by propidium iodide staining based flow cytometry; assay type: functional
HCT-116 [5] = assay: Induction of cell cycle arrest in human HCT116 cells assessed as accumulation at S phase at 20 uM incubated for 24 hrs by propidium iodide staining based flow cytometry (reference value: 21.2%); assay type: functional
HCT-116 [6] = assay: Downregulation of GINS2 gene expression in human HCT116 cells assessed as fold change at 15 uM incubated for 24 hrs by cDNA microarray analysis relative to control; assay type: functional
HCT-116 [7] = assay: Induction of apoptosis in human HCT116 cells assessed as reduction in uncleaved full length caspase 7 level after 24 hrs by Western blot analysis; assay type: functional, cell-based
HCT-116 [8] = assay: Induction of apoptosis in human HCT116 cells assessed as reduction in Bcl-2 level at 5 to 20 uM after 24 hrs by Western blot analysis; assay type: functional, cell-based
HCT-116 [9] = assay: Decrease in cell cycle associated protein expression in human HCT116 cells assessed as reduction in CDK4 expression at 5 to 20 uM after 24 hrs by Western blot analysis; assay type: functional, cell-based
Mus musculus [10] = assay: In vivo modulation of MCM4 in tumor of BALB/c nude mouse xenografted with human HCT116 cells assessed as downregulation of MCM4 mRNA level at 5 to 10 m/kg, ip administered thrice a week for 3.5 weeks by RT-PCR method; assay type: functional, organism-based
HCT-116 [11] = assay: Downregulation of CCNE2 gene expression in human HCT116 cells assessed as fold change at 15 uM incubated for 24 hrs by cDNA microarray analysis relative to control; assay type: functional
SNU-638 = assay: Antiproliferative activity against human SNU638 cells after 72 hrs by sulforhodamine B assay; assay type: functional, cell-based; conditions: SNU-638, 72 h
HCT-116 [12] = assay: Induction of cell cycle arrest in human HCT116 cells assessed as accumulation at G0/G1 phase at 5 uM incubated for 24 hrs by propidium iodide staining based flow cytometry (reference value: 54.7%); assay type: functional
HCT-116 [13] = assay: Modulation of Skp2-p27 Axis in human HCT116 cells assessed as upregulation of p21 expression after 24 hrs by Western blot analysis; assay type: functional, cell-based
Mus musculus [14] = assay: In vivo modulation of MCM4 in tumor of BALB/c nude mouse xenografted with human HCT116 cells assessed as downregulation of MCM4 level at 5 to 10 m/kg, ip administered thrice a week for 3.5 weeks by Western blot analysis; assay type: functional, organism-based
HCT-116 [15] = assay: Induction of cell cycle arrest in human HCT116 cells assessed as accumulation at G0/G1 phase at 10 uM incubated for 18 hrs by propidium iodide staining based flow cytometry (reference value: 43.3%); assay type: functional
HCT-116 [16] = assay: Downregulation of SCARA3 gene expression in human HCT116 cells assessed as fold change at 15 uM incubated for 24 hrs by cDNA microarray analysis relative to control; assay type: functional
HCT-116 [17] = assay: Induction of cell cycle arrest in human HCT116 cells assessed as accumulation at G2/M phase at 5 uM incubated for 18 hrs by propidium iodide staining based flow cytometry (reference value: 25.1%); assay type: functional
HCT-116 [18] = assay: Modulation of Skp2-p27 Axis in human HCT116 cells assessed as downregulation of Skp2 expression at 5 to 20 uM after 24 hrs by Western blot analysis; assay type: functional, cell-based
HCT-116 [19] = assay: Downregulation of HIST1H2BM gene expression in human HCT116 cells assessed as fold change at 15 uM incubated for 24 hrs by cDNA microarray analysis relative to control; assay type: functional
HCT-116 [20] = assay: Induction of morphological changes in human HCT116 cells assessed as appearance of shrunken cells at 4 to 20 uM by inverted phase-contrast microscopic method; assay type: functional, cell-based
HCT-116 [21] = assay: Modulation of Skp2-p27 Axis in human HCT116 cells assessed as upregulation of p27 expression after 24 hrs by Western blot analysis; assay type: functional, cell-based
SK-HEP1 = assay: Antiproliferative activity against human SKHEP1 cells after 72 hrs by sulforhodamine B assay; assay type: functional, cell-based; conditions: SK-HEP1, 72 h
HCT-116 [22] = assay: Induction of cell cycle arrest in human HCT116 cells assessed as accumulation at sub-G1 phase at 5 uM incubated for 18 hrs by propidium iodide staining based flow cytometry (reference value: 0.9%); assay type: functional
HCT-116 [23] = assay: Induction of apoptosis in human HCT116 cells assessed as increase in cleaved caspase 7 level after 24 hrs by Western blot analysis; assay type: functional, cell-based
HCT-116 [24] = assay: Downregulation of FAM111B gene expression in human HCT116 cells assessed as fold change at 15 uM incubated for 24 hrs by cDNA microarray analysis relative to control; assay type: functional
HCT-116 [25] = assay: Downregulation of SKP2 gene expression in human HCT116 cells assessed as fold change at 15 uM incubated for 24 hrs by cDNA microarray analysis relative to control; assay type: functional
HCT-116 [26] = assay: Downregulation of TMSB15A gene expression in human HCT116 cells assessed as fold change at 15 uM incubated for 24 hrs by cDNA microarray analysis relative to control; assay type: functional
Mus musculus [27] = assay: In vivo modulation of Skp2-p27 axis in tumor of BALB/c nude mouse xenografted with human HCT116 cells assessed as upregulation of p27 level at 5 to 10 m/kg, ip administered thrice a week for 3.5 weeks by Western blot analysis; assay type: functional, organism-based
HCT-116 [28] = assay: Induction of cell cycle arrest in human HCT116 cells assessed as accumulation at G0/G1 phase at 10 uM incubated for 24 hrs by propidium iodide staining based flow cytometry (reference value: 54.7%); assay type: functional
HCT-116 [29] = assay: Downregulation of KITLG gene expression in human HCT116 cells assessed as fold change at 15 uM incubated for 24 hrs by cDNA microarray analysis relative to control; assay type: functional
HCT-116 [30] = assay: Induction of cell cycle arrest in human HCT116 cells assessed as accumulation at sub-G1 phase at 20 uM incubated for 18 hrs by propidium iodide staining based flow cytometry (reference value: 0.9%); assay type: functional
HCT-116 [31] = assay: Induction of cell cycle arrest in human HCT116 cells assessed as accumulation at G2/M phase at 10 uM incubated for 18 hrs by propidium iodide staining based flow cytometry (reference value: 25.1%); assay type: functional
HCT-116 [32] = assay: Downregulation of HSPA1A gene expression in human HCT116 cells assessed as fold change at 15 uM incubated for 24 hrs by cDNA microarray analysis relative to control; assay type: functional
HCT-116 [33] = assay: Induction of cell cycle arrest in human HCT116 cells assessed as accumulation at sub-G1 phase at 5 uM incubated for 24 hrs by propidium iodide staining based flow cytometry (reference value: 4.8%); assay type: functional

CN[C@H](C(=O)N[C@H](C(=O)N[C@@H]1C(=O)N(C)[C@@H]([C@@H](C)O)C(=O)N[C@@H](C(C)C)C(=O)N(C)[C@@H](CC(C)C)C(=O)N[C@@H](C(C)C)C(=O)N(C)[C@@H](C(C)C)C(=O)N(C)[C@@H](Cc2c[nH]c3cccc(OC)c23)C(=O)N[C@@H](C(C)C)C(=O)N[C@@H]([C@H](O)c2ccccc2)C(=O)N[C@@H](C(C)C)C(=O)O[C@@H]1C)C(C)C)C(C)C (H-[NMeV]VT[NMeT]V[NMeL]V[NMeV][NMeTrp(4-OMe)]V[Phe(3R-OH)]V; ester 3-C)
inhibition (Mus musculus [1]): Active | Activity (HCT-116 [2]): inactive | Activity (HCT-116 [3]): 70.3% | Activity (HCT-116 [4]): Dose-dependent effect | Activity (HCT-116 [5]): 24.1% | fold change (FC) (HCT-116 [6]): 7.45 | Activity (HCT-116 [7]): Dose-dependent effect | Activity (HCT-116 [8]): Active | inhibition (HCT-116 [9]): Active | inhibition (Mus musculus [10]): Active | fold change (FC) (HCT-116 [11]): 4.613 | IC50 (SNU-638): 9.38 µM | Activity (HCT-116 [12]): 60.9% | Activity (HCT-116 [13]): Dose-dependent effect | inhibition (Mus musculus [14]): Active | Activity (HCT-116 [15]): 51.4% | fold change (FC) (HCT-116 [16]): 4.372 | Activity (HCT-116 [17]): 22.3% | inhibition (HCT-116 [18]): Active | fold change (FC) (HCT-116 [19]): 7.527 | Activity (HCT-116 [20]): Active | Activity (HCT-116 [21]): Dose-dependent effect | IC50 (SK-HEP1): 8.21 µM | Activity (HCT-116 [22]): 1.4% | Activity (HCT-116 [23]): Dose-dependent effect | fold change (FC) (HCT-116 [24]): 7.557 | fold change (FC) (HCT-116 [25]): 4.898 | fold change (FC) (HCT-116 [26]): 6.779 | Activity (Mus musculus [27]): Active | Activity (HCT-116 [28]): 62.7% | fold change (FC) (HCT-116 [29]): 4.177 | Activity (HCT-116 [30]): 7.1% | Activity (HCT-116 [31]): 15.4% | fold change (FC) (HCT-116 [32]): 4.43 | Activity (HCT-116 [33]): 19%
